The supplement of paper PMC10307832

Key:
Test in all cases: relative viability (nuclei count vs DMSO), 5 days (fraction); higher = more cells survive
LCLC-103H = tested on: LCLC-103H
Summary of the method: (§1)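 Five library-drug doses in √10 steps were combined with a fixed anchor-drug dose, or a single drug was given alone, by pin tool to lung cancer cell lines in 1536-well plates the day after seeding. Nuclei were stained and counted after 5 days. Relative viability is the nuclei count in treated wells over that in vehicle wells, taken as the median of duplicate plates.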

LXF-289 = tested on: LXF-289
Summary of the method: as §1

NCI-H1355 = tested on: NCI-H1355
Summary of the method: as §1

NCI-H1563 = tested on: NCI-H1563
Summary of the method: as §1

NCI-H1651 = tested on: NCI-H1651
Summary of the method: as §1

NCI-H1755 = tested on: NCI-H1755
Summary of the method: as §1

NCI-H1792 = tested on: NCI-H1792
Summary of the method: as §1

NCI-H1915 = tested on: NCI-H1915
Summary of the method: as §1

NCI-H2347 = tested on: NCI-H2347
Summary of the method: as §1

NCI-H3122 = tested on: NCI-H3122
Summary of the method: as §1

NCI-H322M = tested on: NCI-H322M
Summary of the method: as §1

NCI-H441 = tested on: NCI-H441
Summary of the method: as §1

NCI-H460 = tested on: NCI-H460
Summary of the method: as §1

NCI-H520 = tested on: NCI-H520
Summary of the method: as §1

NCI-H522 = tested on: NCI-H522
Summary of the method: as §1

NCI-H596 = tested on: NCI-H596
Summary of the method: as §1

NCI-H661 = tested on: NCI-H661
Summary of the method: as §1

NCI-H727 = tested on: NCI-H727
Summary of the method: as §1

PC-14 = tested on: PC-14
Summary of the method: as §1

RERF-LC-KJ = tested on: RERF-LC-KJ
Summary of the method: as §1

SK-MES-1 = tested on: SK-MES-1
Summary of the method: as §1

SW 900 = tested on: SW 900
Summary of the method: as §1

## CC(=O)O[C@@]12CO[C@@H]1C[C@H](O)[C@@]1(C)C(=O)[C@H](O)C3=C(C)[C@@H](OC(=O)[C@H](O)[C@@H](NC(=O)OC(C)(C)C)c4ccccc4)C[C@@](O)([C@@H](OC(=O)c4ccccc4)[C@H]21)C3(C)C [Docetaxel] + COc1cccc2cc(-c3nc([C@H]4CC[C@H](C(=O)O)CC4)n4ncnc(N)c34)[nH]c12 [OSI-027] (partner 0.5 µM)
LCLC-103H; first compound 0.0002 µM
  relative viability: 0.394
LCLC-103H; first compound 0.000632 µM
  relative viability: 0.528
LCLC-103H; first compound 0.002 µM
  relative viability: 0.343
LCLC-103H; first compound 0.006325 µM
  relative viability: 0.414
LCLC-103H; first compound 0.02 µM
  relative viability: 0.264
LXF-289; first compound 0.0002 µM
  relative viability: 0.819
LXF-289; first compound 0.000632 µM
  relative viability: 0.652
LXF-289; first compound 0.006325 µM
  relative viability: 0.117
LXF-289; first compound 0.02 µM
  relative viability: 0.067
NCI-H1355; first compound 0.0002 µM
  relative viability: 0.431
NCI-H1355; first compound 0.000632 µM
  relative viability: 0.386
NCI-H1355; first compound 0.002 µM
  relative viability: 0.252
NCI-H1355; first compound 0.006325 µM
  relative viability: 0.275
NCI-H1355; first compound 0.02 µM
  relative viability: 0.198
NCI-H1563; first compound 0.0002 µM
  relative viability: 0.715
NCI-H1563; first compound 0.000632 µM
  relative viability: 0.79
NCI-H1563; first compound 0.002 µM
  relative viability: 0.738
NCI-H1563; first compound 0.006325 µM
  relative viability: 0.699
NCI-H1563; first compound 0.02 µM
  relative viability: 0.541
NCI-H1651; first compound 0.0002 µM
  relative viability: 0.627
NCI-H1651; first compound 0.000632 µM
  relative viability: 0.783
NCI-H1651; first compound 0.002 µM
  relative viability: 0.38
NCI-H1651; first compound 0.006325 µM
  relative viability: 0.14
NCI-H1651; first compound 0.02 µM
  relative viability: 0.0753
NCI-H1755; first compound 0.0002 µM
  relative viability: 0.677
NCI-H1755; first compound 0.000632 µM
  relative viability: 0.554
NCI-H1755; first compound 0.002 µM
  relative viability: 0.402
NCI-H1755; first compound 0.006325 µM
  relative viability: 0.39
NCI-H1755; first compound 0.02 µM
  relative viability: 0.353
NCI-H1792; first compound 0.0002 µM
  relative viability: 0.673
NCI-H1792; first compound 0.000632 µM
  relative viability: 0.699
NCI-H1792; first compound 0.002 µM
  relative viability: 0.545
NCI-H1792; first compound 0.006325 µM
  relative viability: 0.409
NCI-H1792; first compound 0.02 µM
  relative viability: 0.186
NCI-H1915; first compound 0.0002 µM
  relative viability: 0.603
NCI-H1915; first compound 0.000632 µM
  relative viability: 0.505
NCI-H1915; first compound 0.006325 µM
  relative viability: 0.224
NCI-H1915; first compound 0.02 µM
  relative viability: 0.14
NCI-H2347; first compound 0.0002 µM
  relative viability: 0.435
NCI-H2347; first compound 0.000632 µM
  relative viability: 0.382
NCI-H2347; first compound 0.002 µM
  relative viability: 0.329
NCI-H2347; first compound 0.006325 µM
  relative viability: 0.282
NCI-H2347; first compound 0.02 µM
  relative viability: 0.249
NCI-H3122; first compound 0.0002 µM
  relative viability: 0.932
NCI-H3122; first compound 0.000632 µM
  relative viability: 0.861
NCI-H3122; first compound 0.002 µM
  relative viability: 0.227
NCI-H3122; first compound 0.006325 µM
  relative viability: 0.168
NCI-H3122; first compound 0.02 µM
  relative viability: 0.118
NCI-H322M; first compound 0.0002 µM
  relative viability: 0.531
NCI-H322M; first compound 0.000632 µM
  relative viability: 0.532
NCI-H322M; first compound 0.002 µM
  relative viability: 0.471
NCI-H322M; first compound 0.006325 µM
  relative viability: 0.383
NCI-H322M; first compound 0.02 µM
  relative viability: 0.279
NCI-H441; first compound 0.0002 µM
  relative viability: 0.654
NCI-H441; first compound 0.000632 µM
  relative viability: 0.364
NCI-H441; first compound 0.002 µM
  relative viability: 0.33
NCI-H441; first compound 0.006325 µM
  relative viability: 0.288
NCI-H441; first compound 0.02 µM
  relative viability: 0.235
NCI-H460; first compound 0.0002 µM
  relative viability: 0.645
NCI-H460; first compound 0.000632 µM
  relative viability: 0.238
NCI-H460; first compound 0.002 µM
  relative viability: 0.0745
NCI-H460; first compound 0.006325 µM
  relative viability: 0.0177
NCI-H460; first compound 0.02 µM
  relative viability: 0.0139
NCI-H520; first compound 0.0002 µM
  relative viability: 0.209
NCI-H520; first compound 0.000632 µM
  relative viability: 0.259
NCI-H520; first compound 0.002 µM
  relative viability: 0.276
NCI-H520; first compound 0.006325 µM
  relative viability: 0.257
NCI-H520; first compound 0.02 µM
  relative viability: 0.153
NCI-H522; first compound 0.0002 µM
  relative viability: 0.666
NCI-H522; first compound 0.000632 µM
  relative viability: 0.657
NCI-H522; first compound 0.002 µM
  relative viability: 0.541
NCI-H522; first compound 0.006325 µM
  relative viability: 0.496
NCI-H522; first compound 0.02 µM
  relative viability: 0.426
NCI-H596; first compound 0.0002 µM
  relative viability: 0.805
NCI-H596; first compound 0.000632 µM
  relative viability: 0.767
NCI-H596; first compound 0.002 µM
  relative viability: 0.505
NCI-H596; first compound 0.006325 µM
  relative viability: 0.372
NCI-H596; first compound 0.02 µM
  relative viability: 0.241
NCI-H661; first compound 0.0002 µM
  relative viability: 0.694
NCI-H661; first compound 0.000632 µM
  relative viability: 0.727
NCI-H661; first compound 0.002 µM
  relative viability: 0.521
NCI-H661; first compound 0.006325 µM
  relative viability: 0.29
NCI-H661; first compound 0.02 µM
  relative viability: 0.307
NCI-H727; first compound 0.0002 µM
  relative viability: 0.804
NCI-H727; first compound 0.000632 µM
  relative viability: 0.615
NCI-H727; first compound 0.002 µM
  relative viability: 0.415
NCI-H727; first compound 0.006325 µM
  relative viability: 0.544
NCI-H727; first compound 0.02 µM
  relative viability: 0.361
PC-14; first compound 0.0002 µM
  relative viability: 0.759
PC-14; first compound 0.000632 µM
  relative viability: 0.549
PC-14; first compound 0.002 µM
  relative viability: 0.121
PC-14; first compound 0.006325 µM
  relative viability: 0.0548
PC-14; first compound 0.02 µM
  relative viability: 0.0206
RERF-LC-KJ; first compound 0.0002 µM
  relative viability: 0.564
RERF-LC-KJ; first compound 0.000632 µM
  relative viability: 0.543
RERF-LC-KJ; first compound 0.002 µM
  relative viability: 0.297
RERF-LC-KJ; first compound 0.006325 µM
  relative viability: 0.248
RERF-LC-KJ; first compound 0.02 µM
  relative viability: 0.161
SK-MES-1; first compound 0.0002 µM
  relative viability: 0.621
SK-MES-1; first compound 0.000632 µM
  relative viability: 0.506
SK-MES-1; first compound 0.002 µM
  relative viability: 0.276
SK-MES-1; first compound 0.006325 µM
  relative viability: 0.22
SK-MES-1; first compound 0.02 µM
  relative viability: 0.112
SW 900; first compound 0.0002 µM
  relative viability: 0.298
SW 900; first compound 0.000632 µM
  relative viability: 0.245
SW 900; first compound 0.002 µM
  relative viability: 0.177
SW 900; first compound 0.006325 µM
  relative viability: 0.18
SW 900; first compound 0.02 µM
  relative viability: 0.109
